Source: patent US9987242B2, “Treatment of Levodopa-induced Dyskinesias” (NORTHWESTERN UNIVERSITY, priority 2015, dated 2018)
Entries after “also recorded” stand apart in the source; their conditions may differ.

Columns and labels:
forelimb use asymmetry = assay: Forelimb-use asymmetry test (cylinder test) in 6-OHDA lesioned mice; assay type: in vivo; conditions: for forelimb use asymmetry: n=9
Procedure: (§1) After LID induction, mice were treated with either L-DOPA or L-DOPA and VU152100 (20-120 mg/kg, i.p.) on days 6-8; VU152100 is an M4R PAM with improved pharmacokinetic properties than VU10010.

[1] = test system: phosphorylated ERK1/2 and phosphorylated histone 3; assay: Cells immunoreactive for pERK1/2 and pH3 in the dorsolateral striatum of LID mice; assay type: in vivo
Procedure: as §1

L-DOPA-induced AIMs = assay: Abnormal involuntary movement (AIM) scoring in unilateral 6-OHDA lesioned mice with L-DOPA-induced dyskinesia; assay type: in vivo
Procedure: as §1

[2] = test system: dSPN glutamatergic synapses; assay: Spike-timing-dependent LTD induction (post-pre pairing) in dSPNs, ex vivo corticostriatal slices, perforated-patch or whole-cell recording; assay type: cell-based, mice
Source text: Male C57Bl/6 and FVB mice expressing tdTomato or eGFP under control of either the Drd1 or Drd2 receptor regulatory elements were used. All the mice used for the study were hemizygous for these transgenes. For some experiments, D1-tdTomato BAC mice were crossed with a transgenic line expressing Cre recombinase under control of the ChAT promoter. All mice were 8-10 weeks of age before stereotaxic surgery. Animal use procedures were reviewed and approved by the Northwestern Institutional Animal Care and Use Committee.
Slices were then transferred to a holding chamber containing aCSF. After an incubation period at 34° C. for 30 min, the slices were then kept in the holding chamber at the room temperature for another 30 min before use.
Individual slices were transferred to a recording chamber and were continuously perfused (2-3 ml min^−1) with aCSF for the duration of the experiment. Experiments were performed in the dorsolateral striatum at elevated temperature (30-31° C.).
All the recordings were made using a MultiClamp 700 A amplifier, and signals were filtered at 2 kHz and digitized at 10 kHz. Data were excluded when the series resistance changed >20% over the time course of the experiment. […] Capacitance current was continuously monitored during perforation by applying a 5-10 mV pulse from a holding potential of −70 mV. The amplifier bridge circuit was adjusted to compensate for series resistance and continuously monitored during recordings. Electrode capacitance was also compensated. Data were excluded when the input resistance (Ri) changed >20% over the time course of the experiment.
Data analysis was conducted with Igor Pro 6 (Wavemetrics, Lake Oswego, Oreg.) and Clampfit 9 (Molecular Devices). EPSP amplitude was calculated from 50-60 sweeps immediately before the start of induction and 20-30 min after the end of induction. The change in EPSP amplitude was calculated by averaging EPSP values after the induction and normalized to the average baseline EPSP amplitude. Compiled data were expressed as mean±s.e.m. Statistical tests were performed using Excel (Microsoft, Redmond, Wash.) and SigmaStat (Systat, San Jose, Calif.). Non-parametric Mann-Whitney or Wilcoxon tests were used to assess the experiment results, using a probability threshold of 0.05.
To determine if M4Rs were modulating synaptic plasticity, a spike-timing-dependent plasticity (STDP) paradigm was used. […] Once identified, neurons were monitored and controlled with perforated-patch recording to preserve intracellular signaling mechanisms and to allow stable, long-term monitoring of synaptic strength (FIG. 1A).
Synaptic plasticity was induced by pairing local stimulation of glutamatergic afferent fibers with postsynaptic spikes evoked by short bursts of intracellular current injection that were repeated at 5 Hz (FIGS. 1B, 4A).

[3] = test system: dSPN glutamatergic synapses; assay: Spike-timing-dependent LTP induction (pre-post pairing) in dSPNs, ex vivo slices; assay type: cell-based, mice
[4] = test system: ChIs expressing DREADD hM3D(q); assay: Discharge rate of DREADD hM3D(q)-expressing cholinergic interneurons, cell-attached patches in slices; assay type: cell-based, mice
Source text: To determine the importance of endogenous cholinergic signaling in regulating synaptic plasticity, the discharge rate of ChIs was elevated using a Cre-dependent DREADD (Alexander et al., 2009; Armbruster et al., 2007; Ferguson et al., 2011; Kozorovitskiy et al., 2012; herein incorporated by reference in their entireties). Briefly, bi-transgenic mice expressing tdTomato in dSPNs and Cre-recombinase under control of the choline acetyltransferase (ChAT) promoter received striatal stereotaxic injections of an adeno-associated virus (AAV; serotype 2/8) containing the hM3D(q) expression construct (the University of North Carolina Vector Core). Mice were allowed to recover for 5-6 weeks before recordings. To activate the DREADD expressing ChIs, clozapine-N-oxide (CNO) was bath applied to ex vivo brain slice preparations.
To address the possibility that in an ex vivo slice preparation at 30-31° C., spontaneous ChI activity is low and could lead to effective enzymatic degradation of ACh near its release site and weak M4R activation, the ACh esterase inhibitor physostigmine (10 μM) was co-applied with the M4R PAM. […] Another way to compensate for lower than normal cholinergic signaling in ex vivo slices is to use designer receptors exclusively activated by designer drugs (DREADDs) to selectively increase ChI discharge rate (Alexander et al., 2009; Armbruster et al., 2007; herein incorporated by reference in their entireties). To this end, bi-transgenic mice expressing tdTomato in dSPNs and Cre-recombinase under control of the choline acetyltransferase (ChAT) promoter received striatal injections of an adeno-associated virus (AAV) containing an hM3D(q) expression construct having an upstream foxed STOP codon; this STOP codon is effectively excised by Cre-recombinase leading to DREADD expression (Ferguson et al., 2011; Kozorovitskiy et al., 2012; herein incorporated by reference in their entireties) (FIG. 2A). […]

iSPN synapses = assay: Pre-post pairing protocol in iSPNs from 6-OHDA lesioned, L-DOPA treated mice; conditions: 6-OHDA lesioned mice shortly after L-DOPA treatment
[5] = test system: NMDAR-mediated currents in dSPNs; assay: NMDAR-mediated uEPSCs and EPSCs in dSPNs, whole-cell voltage clamp; assay type: cell-based, mice; conditions: muscarine 3 μM; local electrical stimulation
Procedure: For whole-cell voltage clamp recordings, patch pipettes were loaded with internal recording solution containing (mM): 120 CsMeSO3, 15 CsCl, 8 NaCl, 10 HEPES, 0.2 EGTA, 10 tetraethylammonium Chloride (TEA-Cl), 5 QX-314, 2 Mg-ATP, 0.3 Na-GTP; pH was adjusted to 7.25 with CsOH and osmolarity to ˜305 mOsm l^−1. All the recordings were made using a MultiClamp 700 A amplifier, and signals were filtered at 2 kHz and digitized at 10 kHz. Data were excluded when the series resistance changed >20% over the time course of the experiment. For perforated patch recordings, the internal recording solution comprised (in mM): 125 KMeSO4, 14 KCl, 2 MgCl2, 0.2 EGTA, 10 HEPES; pH was adjusted to 7.25 with NaOH and osmolarity to ˜280 mOsm l^−1. Amphotericin B was used to achieve electrical access through the perforated-patch method (Shen et al., 2007; 2008; herein incorporated by reference in their entireties). Capacitance current was continuously monitored during perforation by applying a 5-10 mV pulse from a holding potential of −70 mV. The amplifier bridge circuit was adjusted to compensate for series resistance and continuously monitored during recordings. Electrode capacitance was also compensated. Data were excluded when the input resistance (Ri) changed >20% over the time course of the experiment.
Glutamate uncaging was achieved using a Verdi/Mira (Coherent Laser Group, Santa Clara, Calif.) (Plotkin et al., 2014). 5 mM MNI-glutamate was superfused over the slice at 0.4 ml/hr using a syring pump and multi-barreled perfusion manifold (Cell MicroControls, Norfolk, Va.). The perfusion solution was (in mM): 124 NaCl, 3 KCl, 2 CaCl2, 1 NaH2PO4, 26 HEPES and 16.66 glucose, and also contained (in μM): 3 muscarine, 10 serine, 10 NBQX and 10 gabazine, plus or minus: 3 SKF81297 and/or 5 VU10010). Glutamate was uncaged adjacent to individual spines using 1 ms pulses of 720-725 nm light typically 10-20 mW in power at the sample plane. Photolysis power was tuned via a third Pockels cell modulator (Con Optics, Danbury, Conn.) to achieve uEPSCs≤5 pA. uEPSC amplitudes were measured from averaged (3-5 repetitions) traces. All uncaging experiments were performed in 0 mM Mg^2+-containing solutions.
To determine the situation in dSPNs, the effect of muscarine and VU10010 on NMDAR-mediated EPSCs evoked by uncaging glutamate on spine heads (uEPSCs) was examined in the presence of SKF81297.

[6] = VU152100 co-administered with L-DOPA vs L-DOPA

COc1ccc(CNC(=O)c2sc3nc(C)cc(C)c3c2N)cc1 [VU152100]
forelimb use asymmetry (forelimb use asymmetry; L-DOPA+VU152100, p>0.05 vs L-DOPA): 38.6±3.04 | effect on anti-parkinsonian action of L-DOPA (forelimb use asymmetry) (forelimb use asymmetry; VU152100 co-administered with L-DOPA): did not occur at the expense of the anti-parkinsonian action of L-DOPA | level of phosphorylated ERK (pERK) ([1]; VU0152100 60 mg kg-1): reduced the levels of LID biomarkers | level of phosphorylated histone3 (pH3) ([1]; VU0152100 60 mg kg-1): reduced the levels of LID biomarkers | number of cells immunoreactive for phosphorylated ERK1/2 (pERK1/2) [1, 6]: reduced the number of cells; also recorded: reduced expression | number of cells immunoreactive for phosphorylated histone 3 (pH3) [1, 6]: reduced the number of cells; also recorded: reduced expression | cumulative AIM scores (L-DOPA-induced AIMs; VU152100 60 mg/kg systemic, with L-DOPA): significantly reduced cumulative AIM scores | anti-dyskinetic effect on doubling the dose (L-DOPA-induced AIMs; VU152100 120 mg/kg, with L-DOPA): did not increase the anti-dyskinetic effect | AIM scores, dose relation (L-DOPA-induced AIMs; VU152100 20, 60, 120 mg/kg): dose-dependent effect | L-DOPA-induced AIM scores (L-DOPA-induced AIMs; VU152100 20-120 mg/kg i.p. with L-DOPA, days 6-8): significantly attenuated

Cc1c(C(=O)NN2CCCCC2)nn(-c2ccc(Cl)cc2Cl)c1-c1ccc(I)cc1 [AM251]
LTD induction in dSPNs ([2]; AM251 2 μM with CNO): dependent upon endocannabinoid (eCB) CB 1 receptors; also recorded: LTD was blunted

N#CC(=C(/N)Sc1ccccc1N)/C(C#N)=C(\N)Sc1ccccc1N [U0126]
STDP LTP induction in dSPNs ([3]; U0126 10 μM, dyskinetic (LID) mice): prevented LTP induction; also recorded: LTP was disrupted | STDP LTP induction in dSPNs ([3]; U0126 10 μM, naive mice): disrupted STDP LTP; also recorded: LTP induction was disrupted

CCCCn1c(=O)sn(CC)c1=O [CCG203769]
LTD induction in dSPNs ([2]; CCG203769 10 μM intracellular, without VU10010): enhanced induction of LTD; also recorded: promoted the induction of LTD | LTD induction in dSPNs ([2]; CCG203769 with VU+PHY+MT3 (M4R antagonized)): antagonizing M4Rs had no effect on dSPN LTD | LTD induction in dSPNs ([2]; CCG203769 with VU+PHY+MT3 (M4R antagonized), listed as CCG): enhanced LTD induction

N[C@@H](CCCP(=O)(O)O)C(=O)O [APV]
LTD induction in dSPNs ([2]; APV 50 μM with VU10010 5 μM): LTD was inducible

C[N+]1([O-])CCN(C2=Nc3cc(Cl)ccc3Nc3ccccc32)CC1 [CNO, clozapine-N-oxide]
ChI discharge rate, median ([4]; CNO 10 μM bath perfusion, n=5): 6.7 Hz | ChI discharge rate, range ([4]; CNO 10 μM bath perfusion, n=5): 4.2-7.8 Hz | ChI spontaneous discharge rate (in words) ([4]; CNO 10 μM, cell-attached patches): increased ChI spontaneous discharge rate | LTD induction in adjacent dSPNs ([2]; CNO 10 μM, elevated ChI activity via DREADD hM3D(q)): led to a robust LTD

CCN1CCCC1CNC(=O)c1cc(S(N)(=O)=O)ccc1OC (stereo not drawn) [sulpiride]
LTD induction in dSPNs ([2]; sulpiride 10 μM with physostigmine 10 μM and VU10010 5 μM): LTD was induced

N[C@@H](Cc1ccc(O)c(O)c1)C(=O)O [L-DOPA, L-3,4-dihydroxyphenylalanine]
STDP LTP induction in dSPNs ([3]; 6-OHDA lesioned mice, slices one hour after last L-DOPA injection): led to a robust LTP; also recorded: LTP was recovered | forelimb use asymmetry (forelimb use asymmetry; L-DOPA alone): 47.98±2.41 | plasticity in iSPNs with pre-post pairing protocol (iSPN synapses): induced an LTD

Cc1cccc(C#Cc2ccccc2)n1 [MPEP]
LTD induction in dSPNs ([2]; MPEP 10 μM with CCG203769): prevented the LTD induction; also recorded: LTD was disrupted

C[C@@H]1O[C@H](C[N+](C)(C)C)C[C@H]1O [muscarine]
amplitudes of NMDAR-mediated EPSCs [5]: reduced the amplitudes
